These results are taken from patent US20240197728A1, “METHODS AND PHARMACEUTICAL COMPOSITIONS FOR TREATING REFRACTORY EPILEPSY” (INSERM (INSTITUT NATIONAL DE LA SANTÉ ET DE LA RECHERCHE …, priority 2021, published 2024).

One test addresses T1, KCC2 (Rattus norvegicus, UniProt Q63633).
T1 construct: endogenous in cells; host or cells: primary rat hippocampal neurons (E18-19 Sprague-Dawley)
T1 sequence (Q63633 1-1116 isoform Q63633-2): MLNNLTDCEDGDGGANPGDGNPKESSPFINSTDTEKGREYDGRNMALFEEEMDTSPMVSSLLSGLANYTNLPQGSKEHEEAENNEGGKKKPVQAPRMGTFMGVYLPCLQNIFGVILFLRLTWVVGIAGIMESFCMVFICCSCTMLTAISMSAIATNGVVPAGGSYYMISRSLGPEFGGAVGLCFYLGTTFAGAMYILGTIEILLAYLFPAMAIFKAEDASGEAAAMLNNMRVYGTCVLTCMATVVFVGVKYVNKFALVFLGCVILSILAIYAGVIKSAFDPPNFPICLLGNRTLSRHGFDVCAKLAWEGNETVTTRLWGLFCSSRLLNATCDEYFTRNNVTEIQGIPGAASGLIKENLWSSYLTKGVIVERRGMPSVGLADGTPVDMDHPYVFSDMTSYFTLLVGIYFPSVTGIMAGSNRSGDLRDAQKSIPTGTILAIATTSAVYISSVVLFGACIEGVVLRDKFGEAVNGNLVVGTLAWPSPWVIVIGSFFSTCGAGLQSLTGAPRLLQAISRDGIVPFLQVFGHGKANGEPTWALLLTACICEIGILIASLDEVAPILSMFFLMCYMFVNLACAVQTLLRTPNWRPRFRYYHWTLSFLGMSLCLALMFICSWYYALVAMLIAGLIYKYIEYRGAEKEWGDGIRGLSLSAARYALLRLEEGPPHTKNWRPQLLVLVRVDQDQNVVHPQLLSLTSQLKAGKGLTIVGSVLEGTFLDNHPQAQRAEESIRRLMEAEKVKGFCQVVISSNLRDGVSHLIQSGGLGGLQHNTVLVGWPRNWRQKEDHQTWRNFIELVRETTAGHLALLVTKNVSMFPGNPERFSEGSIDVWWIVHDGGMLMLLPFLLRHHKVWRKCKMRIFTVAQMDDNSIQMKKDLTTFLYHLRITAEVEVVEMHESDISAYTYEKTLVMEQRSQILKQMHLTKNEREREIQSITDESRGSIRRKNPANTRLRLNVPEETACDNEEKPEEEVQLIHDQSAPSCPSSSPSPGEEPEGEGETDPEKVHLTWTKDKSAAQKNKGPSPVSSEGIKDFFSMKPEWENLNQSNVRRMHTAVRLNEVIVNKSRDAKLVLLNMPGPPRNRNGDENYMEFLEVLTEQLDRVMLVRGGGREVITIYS
Description: Somato-dendritic EGABA gradient (chloride extrusion), whole-cell patch clamp of hippocampal neurons. The format is cell-based.

Test [1] deals with T2, recombinant Flag-tagged KCC2 (Rattus norvegicus, UniProt Q63633).
T2 construct: expressed in transfected cells; host or cells: primary rat hippocampal neurons, transfected at DIV 13-14 with Transfectin
T2 sequence (Q63633 1-1116 isoform Q63633-2): T1 sequence (Q63633 1-1116 isoform Q63633-2)
Kind of test: Quantum dot-based single particle tracking of KCC2 membrane lateral diffusion. The class given is cell-based. As to conditions: vs DMSO. On the procedure: For all experiments on hippocampal cultures, neurons were pre-incubated for 2 hours with either DMSO, PCPZ or CLP257 in a CO2 incubator set at 37° C. Drugs were added directly to the culture medium. For electrophysiology experiments, neurons were also recorded in presence of these drugs in the bath. For biochemistry experiments on rat hippocampo-cortical slices, slices were incubated with either DMSO (vehicle), CLP257, PCPZ, WNK463 or sodium orthovanadate for 2 hours in interface chambers set at 37° C. For human tissue experiments, slices were pre-incubated with either DMSO, CLP257 or PCPZ for 2 hours in interface chambers set at 37° C. and then also recorded in presence of these compounds.
For single-particle-tracking experiments, a previously described KCC2-Flag construct was used. […] All constructs were sequenced by Beckman Coulter Genomics (Hope End, Takeley, U.K). Neuronal transfections were performed at DIV 13-14 using Transfectin (BioRad), according to manufacturer's instructions (DNA:transfectin ratio 1 μg:3 μl), with 1-1.5 μg of plasmid DNA per 20 mm well. Experiments were performed 7-10 days post-transfection.
Neurons were stained as previously described. Briefly, cells were incubated for 6 min at 37° C. with a mouse anti-Flag antibody (mouse, 1:300, Sigma-Aldrich), washed and incubated for 6 min at 37° C. with a biotinylated Fab goat anti-mouse antibody (1:300; Jackson Immuno Research) in imaging medium. After washes, cells were incubated for 1 min with streptavidin-coated quantum dots (QDs) emitting at 655 nm (1 nM; Invitrogen) supplemented with PBS ([…]; Invitrogen) and 10% Casein (v/v) (Sigma).
Cells were imaged using an Olympus IX71 inverted microscope equipped with a 60× objective (NA 1.42; Olympus) and a 120 W Mercury lamp (X-Cite 120Q, Lumen Dynamics). QD real time recordings (integration time of 30 ms over 1200 consecutive frames) were acquired with an ImagEM EMCCD camera and MetaView software (Meta Imaging 7.7). Cells were imaged within 45 min following appropriate drugs pre-incubation.
QD tracking and trajectory reconstruction were performed with homemade Matlab routines, as described. For each imaged neuron, one or two dendritic subregions were quantified. Mean square displacement (MSD) over time plots were calculated as described and diffusion coefficients (D) were calculated by fitting the first four points without origin of the MSD vs. time curves with the equation: MSD(nτ)=4Dnτ+b, where b is a constant reflecting the spot localization accuracy. The explored area of each trajectory was defined as the MSD value of the trajectory at two different time intervals of at 0.42 and 0.45 s.

`O=C1N=C(N2CCCCN2)S/C1=C\c1ccc(F)cc1O` [CLP257, (5Z)-5-[(4-Fluoro-2-hydroxyphenyl)methylene]-2-(tetrahydro-1-(2H)-pyridazinyl)-4(5H)-thiazolone]: the “somato-dendritic gradient of EGABA (ΔEGABA)” value on KCC2 (100 μM CLP257, 2 h, RubiGABA 30 μM uncaging, control 5.32±1.08) came out at 9.70±1.13 mV/100 μm. Further, in test [1] (100 μM CLP257, 2 h), the “change of KCC2 diffusion coefficient, extrasynaptic” value was −20.74±4.85%; the “change of KCC2 diffusion coefficient, synaptic” value is given as “+9.39±11.21%”; the “change of KCC2 explored area, extrasynaptic” value was −25.14±2.73%; the “change of KCC2 explored area, synaptic” value is recorded as “+4.93±19.40%”.

With `CN1CCN(CCCN2c3ccccc3Sc3ccc(Cl)cc32)CC1` [PCPZ, prochlorperazine], the “somato-dendritic gradient of EGABA (ΔEGABA)” value at KCC2 (10 μM PCPZ, 2 h, isoguvacine 100 μM, control 6.56±0.83) is on record as 11.50±1.53 mV/100 μm. Also, in test [1] (10 μM PCPZ, 2 h), the “change of KCC2 diffusion coefficient, extrasynaptic” value is −36.54±14.91%; the “change of KCC2 diffusion coefficient, synaptic” value is given as −26.22±14.00%; the “change of KCC2 explored area, extrasynaptic” value is −39.70±17.18%; the “change of KCC2 explored area, synaptic” value was −30.632±25.44%.
